According to the supplement of paper PMC5844555:

Experiments:
Assay in all cases: 3' UTR reporter interaction score (median-centred robust z-score of log2 firefly/Renilla activity); higher = less repression of the 3' UTR reporter
Settings in all cases: HEK293T; 48 h
BRCA2 = test system: BRCA2
Summary of the method: (§1)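 Firefly and Renilla luciferase activities were read 48 h post-transfection in HEK293T cells (10,000/well, 96-well plates). The cells had received 100 ng firefly luc2P reporter bearing the gene's 3' UTR, 20 ng Renilla pRL-TK control and 2.5 pmol miRNA mimic via DharmaFECT Duo. The interaction score, where more negative means interaction, is a per-plate robust z-score (median, median absolute deviation) of the log firefly/Renilla ratio, median-centred per miRNA and averaged over at least two independent screens.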

EZH2 = test system: EZH2
Summary of the method: as §1

FBXW7 = test system: FBXW7
Summary of the method: as §1

HRAS = test system: HRAS
Summary of the method: as §1

MYB = test system: MYB
Summary of the method: as §1

MYCN = test system: MYCN
Summary of the method: as §1

MYC = test system: MYC
Summary of the method: as §1

MYT1L = test system: MYT1L
Summary of the method: as §1

NOTCH1 = test system: NOTCH1
Summary of the method: as §1

PHF6 = test system: PHF6
Summary of the method: as §1

PHOX2B = test system: PHOX2B
Summary of the method: as §1

RB1 = test system: RB1
Summary of the method: as §1

TP53 = test system: TP53
Summary of the method: as §1

ZEB2 = test system: ZEB2
Summary of the method: as §1

Sequence	3' UTR reporter interaction score (BRCA2)	3' UTR reporter interaction score (EZH2)	3' UTR reporter interaction score (FBXW7)	3' UTR reporter interaction score (HRAS)	3' UTR reporter interaction score (MYB)	3' UTR reporter interaction score (MYCN)	3' UTR reporter interaction score (MYC)	3' UTR reporter interaction score (MYT1L)	3' UTR reporter interaction score (NOTCH1)	3' UTR reporter interaction score (PHF6)	3' UTR reporter interaction score (PHOX2B)	3' UTR reporter interaction score (RB1)	3' UTR reporter interaction score (TP53)	3' UTR reporter interaction score (ZEB2)
AAAAGCUGGGUUGAGAGGGCGAA	0.138	-2.65	0.0632	-0.583	1.19	0.121	0.0971	-0.165	0.666	0.0922	-1.64	0.499	-0.479	1.15
AAAAGUGCUUACAGUGCAGGUAGC	0.703	-0.783	-0.263	0.892	-0.0116	-0.211	0.278	-1.75	0.451	1.56	-0.496	0.176	-0.24	0.747
AAAAUGGUUCCCUUUAGAGUGUU	-1.38	0.888	0.697	0.747	-0.486	0.195	0.494	0.818	-2.3	0.573	-0.183	-2.85	-1.35	-1.19
AAACAAACAUGGUGCACUUCUUU	-0.147	1.82	-0.367	-0.444	0.209	0.437	0.601	-1.89	0.581	-1.41	0.00827	1.09	-0.293	-0.365
AAACCUGUGUUGUUCAAGAGUC	1.31	0.928	0.0167	0.374	-0.47	-0.75	-0.2	-0.496	0.0529	-0.148	-2.54	-0.803	0.0666	-1.07
AAACUACUGAAAAUCAAAGAU	0.536	-0.0901	-0.0213	-0.566	0.63	-0.411	0.0375	-0.7	-0.667	0.0968	-0.331	0.321	0.261	-1.71
AACUGGCCCUCAAAGUCCCGCUUU	0.335	0.347	0.0369	1.58	-3.7	-2.37	0.891	-0.278	-1.04	-1.81	0.301	1.12		0.222
AACUGGCCUACAAAGUCCCAG	-0.135	0.239	0.16	1.01	-3.25	-2.47	0.942	-0.789	-1.05		-0.335	0.314	-0.0425	0.719
AAUCGUACAGGGUCAUCCACUU	-0.12	0.723	0.407	0.0979	0.179	-0.121	0.0345	-0.171	0.0951		1.36	-0.619	0.0793	0.283
AUCACAUUGCCAGGGAUUACC	-1.56	0.0796	-0.221	-0.747	-0.174	0.139	0.209	0.363	-0.965	0.0907	0.2	0.534		1.1
CAAAGUGCUUACAGUGCAGGUAGU	-0.125	-0.848		0.135	-0.142	-0.306	0.444	-0.396	0.897	-0.0772	0.665	0.713	0.459	1.15
CCUAGUAGGUGUCCAGUAAGUGU	-0.873	-0.633	-0.251	-0.971	0.0319	0.245	0.727	0.0095	0.26	-0.224	0.805	-1.08	-0.172	
GGCAAGAUGCUGGCAUAGCUG		-0.113	1.19	0.647	0.765	0.322	0.017	-0.16	-0.293	-1.44	1.14	0.334	-0.71	1.14
GUGAAAUGUUUAGGACCACUAG	-0.28	-0.221	0.238	-0.276	-0.192	-0.394		0.987	-0.392	1.07	0.216	-0.00504	0.19	0.105
UAAUACUGCCUGGUAAUGAUGAC		0.31	-0.751	-0.0979	-2.25	-0.158	1.05	1.12	-0.616	2	-1.14	0.622	-0.665	-3.47
UACUCAGGAGAGUGGCAAUCACA	0.435	-0.403	-0.521	-0.17	1.48	0.696	0.13	-0.715	-0.379	-1.8	0.756	-0.0737		0.272
UCACUCCUCUCCUCCCGUCUUCU	-0.727	-1.64	-1.25	-0.435	0.575	0.923		1.44	1.17	0.199	-0.219	0.27	-0.451	1.61
UGUAAACAUCCUUGACUGGA	0.0901	-0.145	0.548	0.642	0.77	-0.313		0.512	-0.407	-0.821	0.574	-0.17	-0.0994	-1.5
UUUCAAGCCAGGGGGCGUUUUUC	-0.216	-0.378	1.22	-0.232	0.555	-0.0394	0.49	0.976	-1.91	-0.209	-0.413	-0.19	1.02	
